According to ChEMBL document CHEMBL4627386, “Bromo-spiroisoxazoline Alkaloids, Including an Isoserine Peptide, from the Caribbean Marine Sponge Aplysina lacunosa” (J Nat Prod, 2020):
Calls of active or inactive are those of the source. No cut-off for these calls is given here.

Biological target: Chymotrypsinogen A (Bos taurus) (UniProt P00766)
Assay: Inhibition of bovine alpha-Chymotrypsin up to 25 ug/ml using Ala-Ala-Phe-p-nitroanilide as substrate preincubated for 15 mins followed by substrate addition and measured after 1 hr by colorimetric method

inhibition, inactive:
COc1c(Br)cc(C/C(=N\O)C(=O)NCCc2c[nH]cn2)c(O)c1Br
COC1=C(Br)[C@H](O)[C@@]2(C=C1Br)CC(C(=O)NCCCOc1c(Br)cc(C/C(=N\O)C(=O)NCCc3c[nH]cn3)cc1Br)=NO2
COC(=O)C(O)CNC(=O)C1=NO[C@]2(C=C(Br)C(OC)=C(Br)[C@@H]2O)C1 (some centres not stated)
COC1=C(Br)[C@@H](O)[C@]2(C=C1Br)CC(C(=O)NCCCc1cnc(N)[nH]1)=NO2
COC1=C(Br)[C@H](O)[C@@]2(C=C1Br)CC(C(=O)NCCc1c[nH]cn1)=NO2
COC(=O)CNC(=O)C1=NO[C@]2(C=C(Br)C(OC)=C(Br)[C@@H]2O)C1
COC(=O)C1=NO[C@]2(C=C(Br)C(OC)=C(Br)[C@@H]2O)C1
